Legend:
[1] = test system: HPA axis activity in healthy control subject; assay: 2 days of a GR antagonist in healthy control subject under constant routine conditions, salivary cortisol; format: in vivo, human; settings: 400 mg for two consecutive days, single healthy subject, FIG. 5
Procedure: In a separate experiment, the longitudinal effects of 2 days of a GR antagonist on melatonin and HPA axis activity was measured in healthy control subject during an inpatient stay under constant routine conditions. […] Salivary cortisol, ACTH and dim light melatonin were measured the evening/morning before and on the second evening/morning of medication. The design was created to include measures of the phase of night-time DLMO as well as measures of the morning response of the HPA axis, including timing of cortisol acrophase. The design was formulated to ascertain circadian phase shifting in a controlled setting with healthy subjects (as might occur in jet-lag or shift work). […] Salivary melatonin samples were insufficient.

subjects with insomnia = assay: Polysomnogram measures, double-blinded placebo controlled study of 5 days mifepristone in insomnia; format: in vivo, human; settings: for % REM, average / % S1, average / % S2, average / % S3, average / % S4, average / Arousal, average / NUAW, average / Rem Lat, average / Rem density, average / S3 Lat, average / SE (S2, S3, S4), average / SE (S3, S4), average / SPT, average / TST, average / WASO, average: Rx Ave (n = 5)
healthy male = settings: given in the afternoon, Wiedemann 1992; cited from earlier work
[2] = molecular target: T1, glucocorticoid (GR) receptors (Homo sapiens, UniProt P04150); settings: literature; cited from earlier work
T1 sequence (P04150 1-777): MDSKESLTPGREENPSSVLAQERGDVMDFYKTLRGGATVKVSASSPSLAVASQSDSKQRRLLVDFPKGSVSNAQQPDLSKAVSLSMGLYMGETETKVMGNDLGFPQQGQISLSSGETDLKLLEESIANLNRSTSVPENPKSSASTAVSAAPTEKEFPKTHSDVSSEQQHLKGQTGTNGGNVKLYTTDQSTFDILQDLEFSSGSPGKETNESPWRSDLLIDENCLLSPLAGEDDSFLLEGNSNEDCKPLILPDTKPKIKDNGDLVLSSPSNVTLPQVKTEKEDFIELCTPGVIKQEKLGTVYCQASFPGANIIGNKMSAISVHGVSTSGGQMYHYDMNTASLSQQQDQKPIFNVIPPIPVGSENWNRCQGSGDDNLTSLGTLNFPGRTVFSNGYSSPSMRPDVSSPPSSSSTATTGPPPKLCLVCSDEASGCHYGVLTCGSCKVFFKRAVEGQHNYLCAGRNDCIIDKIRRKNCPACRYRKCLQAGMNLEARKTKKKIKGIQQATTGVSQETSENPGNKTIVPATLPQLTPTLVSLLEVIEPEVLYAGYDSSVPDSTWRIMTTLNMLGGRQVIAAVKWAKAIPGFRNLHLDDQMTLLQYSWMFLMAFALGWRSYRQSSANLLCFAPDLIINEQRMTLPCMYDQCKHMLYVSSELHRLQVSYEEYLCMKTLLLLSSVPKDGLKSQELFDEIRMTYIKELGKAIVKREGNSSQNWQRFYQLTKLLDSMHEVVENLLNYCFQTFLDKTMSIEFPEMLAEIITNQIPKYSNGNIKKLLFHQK

[3] = test system: HPA axis activity (cortisol, ACTH) and melatonin in chronic insomnia subjects; assay: Overnight melatonin (dim light), cortisol and ACTH levels in the insomnia study; format: in vivo, human; settings: after 5 days treatment in the outpatient setting, FIG. 3
[4] = 2 Wk Post Tx rel to Baseline, Tx Delta
[5] = 2 Wk Post Tx rel to Baseline, Tx rel to Plac
[6] = Day 5 Tx rel to Baseline, Tx Delta
[7] = Day 5 Tx rel to Baseline, Tx rel to Plac

SMILES: CC#C[C@]1(O)CC[C@H]2[C@@H]3CCC4=CC(=O)CCC4=C3[C@@H](c3ccc(N(C)C)cc3)C[C@@]21C [mifepristone, 17-beta-hydroxy-11-beta-(4-dimethyl-aminophenyl)-17-alpha-(1-propynyl)-estra-4,9-dien-3-one]
- cortisol [1]: rise
- timing of the morning acrophase of cortisol [1]: delay
- % REM (percentage REM sleep) (subjects with insomnia; [4]): 1.63%
- % S1 (percentage stage 1 sleep) (subjects with insomnia; [4]): −39.19%
- % S2 (percentage stage 2 sleep) (subjects with insomnia; [4]): −2.68%
- % S3 (percentage stage 3 sleep) (subjects with insomnia; [4]): 1.09%
- % S4 (percentage stage 4 sleep) (subjects with insomnia; [4]): −1.48%
- Arousal (subjects with insomnia; [4]): 5.2
- NUAW (number of awakenings) (subjects with insomnia; [4]): 0
- Rem Lat (minutes to first epoch of REM after sleep onset) (subjects with insomnia; [4]): -4 min
- Rem p (subjects with insomnia; [4]): 1.972
- S3 Lat (latency to onset of stage 3 sleep) (subjects with insomnia; [4]): -0.85 min
- SEB (S2, S3, S4) (total combined minutes of stage 2, 3 and 4 per total sleep minutes) (subjects with insomnia; [4]): 2.57
- SEC (S3, S4) (total combined minutes of stage 3, 4 per total sleep minutes) (subjects with insomnia; [4]): 1.19
- SPT (subjects with insomnia; [4]): 28.1 min
- TST (total combined minutes of sleep) (subjects with insomnia; [4]): 38.5 min
- WASO (wake after sleep onset) (subjects with insomnia; [4]): -10.4 min
- % REM (percentage REM sleep) (subjects with insomnia; [5]): 1.31%
- % S1 (percentage stage 1 sleep) (subjects with insomnia; [5]): −0.01%
- % S2 (percentage stage 2 sleep) (subjects with insomnia; [5]): −5.05%
- % S3 (percentage stage 3 sleep) (subjects with insomnia; [5]): 1.45%
- % S4 (percentage stage 4 sleep) (subjects with insomnia; [5]): −0.98%
- Arousal (subjects with insomnia; [5]): −3.7
- NUAW (number of awakenings) (subjects with insomnia; [5]): 1.5
- Rem Lat (minutes to first epoch of REM after sleep onset) (subjects with insomnia; [5]): 39.5 min
- Rem p (subjects with insomnia; [5]): 2.73
- S3 Lat (latency to onset of stage 3 sleep) (subjects with insomnia; [5]): 23.1 min
- SEB (S2, S3, S4) (total combined minutes of stage 2, 3 and 4 per total sleep minutes) (subjects with insomnia; [5]): −1.34
- SEC (S3, S4) (total combined minutes of stage 3, 4 per total sleep minutes) (subjects with insomnia; [5]): 2.02
- SPT (subjects with insomnia; [5]): 29.55 min
- TST (total combined minutes of sleep) (subjects with insomnia; [5]): 21.65 min
- WASO (wake after sleep onset) (subjects with insomnia; [5]): 7.85 min
- % REM (percentage REM sleep) (subjects with insomnia; [6]): −9.33%
- % S1 (percentage stage 1 sleep) (subjects with insomnia; [6]): −38.34%
- % S2 (percentage stage 2 sleep) (subjects with insomnia; [6]): 6.44%
- % S3 (percentage stage 3 sleep) (subjects with insomnia; [6]): 0.76%
- % S4 (percentage stage 4 sleep) (subjects with insomnia; [6]): −0.01%
- Arousal (subjects with insomnia; [6]): 0.9
- NUAW (number of awakenings) (subjects with insomnia; [6]): 3.3
- Rem Lat (minutes to first epoch of REM after sleep onset) (subjects with insomnia; [6]): 61.15 min
- Rem p (subjects with insomnia; [6]): −0.826
- S3 Lat (latency to onset of stage 3 sleep) (subjects with insomnia; [6]): 7.05 min
- SEB (S2, S3, S4) (total combined minutes of stage 2, 3 and 4 per total sleep minutes) (subjects with insomnia; [6]): −2.13
- SEC (S3, S4) (total combined minutes of stage 3, 4 per total sleep minutes) (subjects with insomnia; [6]): −7.3
- SPT (subjects with insomnia; [6]): 28.69 min
- TST (total combined minutes of sleep) (subjects with insomnia; [6]): 17.05 min
- WASO (wake after sleep onset) (subjects with insomnia; Day 5 Tx rel to Baseline, Tx Delta, 600 mg/day in the morning, 5 days): 16.4 min
- % REM (percentage REM sleep) (subjects with insomnia; [7]): −9.69%
- % S1 (percentage stage 1 sleep) (subjects with insomnia; [7]): 1.76%
- % S2 (percentage stage 2 sleep) (subjects with insomnia; [7]): 3.9%
- % S3 (percentage stage 3 sleep) (subjects with insomnia; [7]): 0.71%
- % S4 (percentage stage 4 sleep) (subjects with insomnia; [7]): 0.42%
- Arousal (subjects with insomnia; [7]): −3.8
- NUAW (number of awakenings) (subjects with insomnia; [7]): 5
- Rem Lat (minutes to first epoch of REM after sleep onset) (subjects with insomnia; [7]): 99.6 min
- Rem p (subjects with insomnia; [7]): 0.654
- S3 Lat (latency to onset of stage 3 sleep) (subjects with insomnia; [7]): 19.35 min
- SEB (S2, S3, S4) (total combined minutes of stage 2, 3 and 4 per total sleep minutes) (subjects with insomnia; [7]): −6.85
- SEC (S3, S4) (total combined minutes of stage 3, 4 per total sleep minutes) (subjects with insomnia; [7]): −7.45
- SPT (subjects with insomnia; [7]): 29.39 min
- TST (total combined minutes of sleep) (subjects with insomnia; [7]): -3.75 min
- WASO (wake after sleep onset) (subjects with insomnia; [7]): 37.85 min
- % REM, average (subjects with insomnia; T2): 11.62%
- % S1, average (subjects with insomnia; T2): 15.48%
- % S2, average (subjects with insomnia; T2): 60.26%
- % S3, average (subjects with insomnia; T2): 7.63%
- % S4, average (subjects with insomnia; T2): 4.36%
- Arousal, average (subjects with insomnia; T2): 105.70
- NUAW, average (subjects with insomnia; T2): 27.60
- Rem Lat, average (subjects with insomnia; T2): 137.95 min
- Rem density, average (subjects with insomnia; T2): 7.16
- S3 Lat, average (subjects with insomnia; T2): 24.80 min
- SE (S2, S3, S4), average (subjects with insomnia; T2): 83.34
- SE (S3, S4), average (subjects with insomnia; T2): 24.94
- SPT, average (subjects with insomnia; T2): 469.24 min
- TST, average (subjects with insomnia; T2): 390.65 min
- WASO, average (subjects with insomnia; T2): 83.35 min
- % REM, average (subjects with insomnia; T3): 22.58%
- % S1, average (subjects with insomnia; T3): 14.63%
- % S2, average (subjects with insomnia; T3): 51.14%
- % S3, average (subjects with insomnia; T3): 7.96%
- % S4, average (subjects with insomnia; T3): 2.89%
- Arousal, average (subjects with insomnia; T3): 110.00
- NUAW, average (subjects with insomnia; T3): 24.30
- Rem Lat, average (subjects with insomnia; T3): 72.80 min
- Rem density, average (subjects with insomnia; T3): 9.95
- S3 Lat, average (subjects with insomnia; T3): 16.90 min
- SE (S2, S3, S4), average (subjects with insomnia; T3): 88.04
- SE (S3, S4), average (subjects with insomnia; T3): 33.43
- SPT, average (subjects with insomnia; T3): 468.65 min
- TST, average (subjects with insomnia; T3): 412.10 min
- WASO, average (subjects with insomnia; T3): 56.55 min
- total sleep time (TST), in words (subjects with insomnia; at 2 weeks post treatment): increased
- REM latency (RL), in words (subjects with insomnia; most acutely during active treatment): increased
- effect on sleep (healthy male): significant worsening of sleep
- antagonist of glucocorticoid (GR) receptors [2]: powerful antagonist
- DLMO (time at which melatonin reaches 20 pg/ml) [3]: delay
